Values quoted from earlier work as cited in US20220211667A1, “COMPOSITION FOR THE INTRAPERITONEAL TREATMENT OF SECONDARY BACTERIAL PERITONITIS WITH REDUCTION OF COMPLICATIONS” (priority 2019, published 2022).

Experiments:
Pseudomonas aeruginosa = conditions: maximum, for Pseudomonas aeruginosa; controlled clinical trials, oral or intravenous
[1] = not given; remark: listed apart in the source
[2] = system: polymorphonuclear leukocytes
[3] = system: strains of organisms from the susceptible genera
[4] = system: resistant bacterial strains; conditions: overall; controlled clinical trials, oral or intravenous
[5] = intraperitoneal; third and last day of treatment

C[C@@H]1O[C@@H]1P(=O)(O)O.NC(CO)(CO)CO [Fosfomycin trometamol]
solubility in water: highly soluble in water | pH of 5% solution: 3.5-5.5

C[C@@H]1O[C@@H]1P(=O)(O)O [fosfomycin, [(2R,3S)-3-methyloxiran-2-yl]phosphonic acid]
appearance of resistant bacterial strains (Pseudomonas aeruginosa): 15% | eosinophilia ([1]; evidence of allergy): 0.2% | transient rashes ([1]; evidence of allergy): 0.3 % of cases | transiently raised liver enzymes ([1]; in vivo): 0.3 % of cases | concentration in polymorphonuclear leukocytes relative to extracellular fluid [2]: twice those of the extracellular fluid | tested strains showing synergistic effect ([3]; early studies, various antibiotic combinations): 70-100% | synergy rates ([3]; subsequent more extensive studies): 36-74% | appearance of resistant bacterial strains [4]: 3.0%

GM-CSF: cytokine of the colony-stimulating factor family; mature human protein of 127 amino-acid residues, SEQ ID NO: 1
patients with minor flu-like symptoms [5]: 2 of 8

C[C@@H]1O[C@@H]1P(=O)(O)O [Fosfomycin disodium]
solubility in water: highly soluble in water | pH of 5% solution: 9.0-10.5
